In BindingDB's records for doi:10.1016/s0960-894x(02)00205-6 (Southern Methodist University, 2002):

Assay: Inhibitory activity against class A TEM-1 beta-lactamase

Row | Structure (SMILES) | IC50 [nM]
1 | O=C(O)C1=C(C(=O)O)N2C(=O)/C(=C/c3ccccn3)[C@H]2S(=O)(=O)C1 [Disodium; (R)-3-carboxy-5,5,8-trioxo-7-[1-pyridin-2-yl-meth-(Z)-ylidene]-5lambda*6*-thia-1-aza-bicyclo[4.2.0]oct-2-ene-2-carboxylate] | 10400
2 | O=C(/C=C/C1=C(C(=O)O)N2C(=O)/C(=C/c3ccccn3)[C@H]2S(=O)(=O)C1)NCc1ccccc1 [Sodium; (R)-3-((E)-2-benzylcarbamoyl-vinyl)-5,5,8-trioxo-7-[1-pyridin-2-yl-meth-(Z)-ylidene]-5lambda*6*-thia-1-aza-bicyclo[4.2.0]oct-2-ene-2-carboxylate] | 1400
3 | NC(=O)/C=C/C1=C(C(=O)O)N2C(=O)/C(=C/c3ccccn3)[C@H]2S(=O)(=O)C1 [Sodium; (R)-3-((E)-2-carbamoyl-vinyl)-5,5,8-trioxo-7-[1-pyridin-2-yl-meth-(Z)-ylidene]-5lambda*6*-thia-1-aza-bicyclo[4.2.0]oct-2-ene-2-carboxylate] | 262
4 | O=C(/C=C/C1=C(C(=O)O)N2C(=O)/C(=C/c3ccccn3)[C@H]2S(=O)(=O)C1)NC1CC1 [Sodium; (R)-3-((E)-2-cyclopropylcarbamoyl-vinyl)-5,5,8-trioxo-7-[1-pyridin-2-yl-meth-(Z)-ylidene]-5lambda*6*-thia-1-aza-bicyclo[4.2.0]oct-2-ene-2-carboxylate] | 240
5 | NNC(=O)/C=C/C1=C(C(=O)O)N2C(=O)/C(=C/c3ccccn3)[C@H]2S(=O)(=O)C1 [Sodium; (R)-3-((E)-2-hydrazinocarbonyl-vinyl)-5,5,8-trioxo-7-[1-pyridin-2-yl-meth-(Z)-ylidene]-5lambda*6*-thia-1-aza-bicyclo[4.2.0]oct-2-ene-2-carboxylate] | 390
6 | O=C(/C=C/C1=C(C(=O)O)N2C(=O)/C(=C/c3ccccn3)[C@H]2S(=O)(=O)C1)NO [Sodium; (R)-3-((E)-2-hydroxycarbamoyl-vinyl)-5,5,8-trioxo-7-[1-pyridin-2-yl-meth-(Z)-ylidene]-5lambda*6*-thia-1-aza-bicyclo[4.2.0]oct-2-ene-2-carboxylate] | 7690
7 | N=C(N)NCCNC(=O)C=CC1=C(C(=O)O)N2C(=O)C(=Cc3ccccn3)[C@H]2S(=O)(=O)C1 [Sodium; (R)-3-[(E)-2-(2-guanidino-ethylcarbamoyl)-vinyl]-5,5,8-trioxo-7-[1-pyridin-2-yl-meth-(Z)-ylidene]-5lambda*6*-thia-1-aza-bicyclo[4.2.0]oct-2-ene-2-carboxylate] | 8.3
8 | O=C(/C=C/C1=C(C(=O)O)N2C(=O)/C(=C/c3ccccn3)[C@H]2S(=O)(=O)C1)NCCO [Sodium; (R)-3-[(E)-2-(2-hydroxy-ethylcarbamoyl)-vinyl]-5,5,8-trioxo-7-[1-pyridin-2-yl-meth-(Z)-ylidene]-5lambda*6*-thia-1-aza-bicyclo[4.2.0]oct-2-ene-2-carboxylate] | 70
9 | NCCCNC(=O)/C=C/C1=C(C(=O)O)N2C(=O)/C(=C/c3ccccn3)[C@H]2S(=O)(=O)C1 [Sodium; (R)-3-[(E)-2-(3-amino-propylcarbamoyl)-vinyl]-5,5,8-trioxo-7-[1-pyridin-2-yl-meth-(Z)-ylidene]-5lambda*6*-thia-1-aza-bicyclo[4.2.0]oct-2-ene-2-carboxylate] | 1590
10 | O=C(/C=C/C1=C(C(=O)O)N2C(=O)/C(=C/c3ccccn3)[C@H]2S(=O)(=O)C1)Nc1ccc(O)cc1 [Sodium; (R)-3-[(E)-2-(4-hydroxy-phenylcarbamoyl)-vinyl]-5,5,8-trioxo-7-[1-pyridin-2-yl-meth-(Z)-ylidene]-5lambda*6*-thia-1-aza-bicyclo[4.2.0]oct-2-ene-2-carboxylate] | 110
11 | CN1CCN(C(=O)/C=C/C2=C(C(=O)O)N3C(=O)/C(=C/c4ccccn4)[C@H]3S(=O)(=O)C2)CC1 [Sodium; (R)-3-[(E)-3-(4-methyl-piperazin-1-yl)-3-oxo-propenyl]-5,5,8-trioxo-7-[1-pyridin-2-yl-meth-(Z)-ylidene]-5lambda*6*-thia-1-aza-bicyclo[4.2.0]oct-2-ene-2-carboxylate] | 53
12 | O=C(O)C1=C(S(=O)(=O)c2ccccc2)CS(=O)(=O)[C@@H]2/C(=C\c3ccccn3)C(=O)N12 [Sodium; (R)-3-benzenesulfonyl-5,5,8-trioxo-7-[1-pyridin-2-yl-meth-(Z)-ylidene]-5lambda*6*-thia-1-aza-bicyclo[4.2.0]oct-2-ene-2-carboxylate] | 9.4
13 | O=C(O)C1=C(Br)CS(=O)(=O)[C@@H]2/C(=C\c3ccccn3)C(=O)N12 [Sodium; (R)-3-bromo-5,5,8-trioxo-7-[1-pyridin-2-yl-meth-(Z)-ylidene]-5lambda*6*-thia-1-aza-bicyclo[4.2.0]oct-2-ene-2-carboxylate] | 791
14 | O=C(O)C1=C(Cl)CS(=O)(=O)[C@@H]2/C(=C\c3ccccn3)C(=O)N12 [Sodium; (R)-3-chloro-5,5,8-trioxo-7-[1-pyridin-2-yl-meth-(Z)-ylidene]-5lambda*6*-thia-1-aza-bicyclo[4.2.0]oct-2-ene-2-carboxylate] | 1820
15 | O=C(O)C1=C(F)CS(=O)(=O)[C@@H]2/C(=C\c3ccccn3)C(=O)N12 [Sodium; (R)-3-fluoro-5,5,8-trioxo-7-[1-pyridin-2-yl-meth-(Z)-ylidene]-5lambda*6*-thia-1-aza-bicyclo[4.2.0]oct-2-ene-2-carboxylate] | 1840
16 | O=C(O)C1=C(I)CS(=O)(=O)[C@@H]2/C(=C\c3ccccn3)C(=O)N12 [Sodium; (R)-3-iodo-5,5,8-trioxo-7-[1-pyridin-2-yl-meth-(Z)-ylidene]-5lambda*6*-thia-1-aza-bicyclo[4.2.0]oct-2-ene-2-carboxylate] | 1280
17 | CS(=O)(=O)C1=C(C(=O)O)N2C(=O)/C(=C/c3ccccn3)[C@H]2S(=O)(=O)C1 [Sodium; (R)-3-methanesulfonyl-5,5,8-trioxo-7-[1-pyridin-2-yl-meth-(Z)-ylidene]-5lambda*6*-thia-1-aza-bicyclo[4.2.0]oct-2-ene-2-carboxylate] | 7.6
18 | CSC1=C(C(=O)O)N2C(=O)/C(=C/c3ccccn3)[C@H]2S(=O)(=O)C1 [Sodium; (R)-3-methylsulfanyl-5,5,8-trioxo-7-[1-pyridin-2-yl-meth-(Z)-ylidene]-5lambda*6*-thia-1-aza-bicyclo[4.2.0]oct-2-ene-2-carboxylate] | 1060
19 | O=C(/C=C/C1=C(C(=O)O)N2C(=O)/C(=C/c3ccccn3)[C@H]2S(=O)(=O)C1)Nc1c(F)c(F)c(F)c(F)c1F [Sodium; (R)-5,5,8-trioxo-3-((E)-2-pentafluorophenylcarbamoyl-vinyl)-7-[1-pyridin-2-yl-meth-(Z)-ylidene]-5lambda*6*-thia-1-aza-bicyclo[4.2.0]oct-2-ene-2-carboxylate] | 4280
20 | O=C(O)C1=C(c2ccccc2)CS(=O)(=O)[C@@H]2/C(=C\c3ccccn3)C(=O)N12 [Sodium; (R)-5,5,8-trioxo-3-phenyl-7-[1-pyridin-2-yl-meth-(Z)-ylidene]-5lambda*6*-thia-1-aza-bicyclo[4.2.0]oct-2-ene-2-carboxylate] | 9140
21 | O=C(O)C1=C(Sc2ccccc2)CS(=O)(=O)[C@@H]2/C(=C\c3ccccn3)C(=O)N12 [Sodium; (R)-5,5,8-trioxo-3-phenylsulfanyl-7-[1-pyridin-2-yl-meth-(Z)-ylidene]-5lambda*6*-thia-1-aza-bicyclo[4.2.0]oct-2-ene-2-carboxylate] | 12
22 | O=C(/C=C/C1=C(C(=O)O)N2C(=O)/C(=C/c3ccccn3)[C@H]2S(=O)(=O)C1)NCC(F)(F)F [Sodium; (R)-5,5,8-trioxo-7-[1-pyridin-2-yl-meth-(Z)-ylidene]-3-[(E)-2-(2,2,2-trifluoro-ethylcarbamoyl)-vinyl]-5lambda*6*-thia-1-aza-bicyclo[4.2.0]oct-2-ene-2-carboxylate] | 78
23 | O=C(O)C1=C(c2cccs2)CS(=O)(=O)[C@@H]2/C(=C\c3ccccn3)C(=O)N12 [Sodium; (R)-5,5,8-trioxo-7-[1-pyridin-2-yl-meth-(Z)-ylidene]-3-thiophen-2-yl-5lambda*6*-thia-1-aza-bicyclo[4.2.0]oct-2-ene-2-carboxylate] | 3540
24 | O=C(O)C1=CCS(=O)(=O)[C@@H]2/C(=C\c3ccccn3)C(=O)N12 [Sodium; (R)-5,5,8-trioxo-7-[1-pyridin-2-yl-meth-(Z)-ylidene]-5lambda*6*-thia-1-aza-bicyclo[4.2.0]oct-2-ene-2-carboxylate] | 18500
